Measurements published in patent US11478482B2 (NATIONAL UNIVERSITY CORPORATION TOKAI NATIONAL HIGHER …, priority 2018, dated 2022).
Counter-ions that a name gives are not always drawn.

Assays:
[1] = system: Meth-treated mice (C57BL/6); assay: Meth-induced visual discrimination learning impairment in C57BL/6 mice (wild type); format: in vivo; details: for Meth-induced (1.0 mg/kg) visual discrimination impairment: meth-treated C57BL/6 mice
[2] = system: dopaminergic neurons induced from iPS cells of patients with ARHGAP10 mutation; assay: Neurite length of iPS cell-derived dopaminergic neurons (IncuCyte NeuroTrack); format: cell-based, human; details: 72 hours after addition of inhibitor
Protocol: Dopaminergic neurons were induced from iPS cells of healthy subjects and patients with ARGHAP10 mutation. The induction method was performed according to a method already published (Transl Psychiatry. 2018 Jul. 19; 8(1): 129; and patent application PCT/JP2018/015304). To give an overview, iPS cells were cultured in an iPS cell medium supplemented with SB431542 (3 μM), CHIR99021 (3 μM), and dorsomorphin (3 μM) for 7 days (day 0 to day 7). The cultured cells were then dispersed with TrypLE™ select (Thermo Fisher Scientific Inc.) and passed through a cell strainer. […]
Dopaminergic progenitor cells were seeded onto a culture dish coated with poly-L-ornithine/laminin/fibronectin (poly-L-ornithine, laminin, and fibronectin), and an Rho kinase inhibitor was added simultaneously. […] The length of neurites after 72 hours was automatically measured with IncuCyte NeuroTrack (registered trademark).
Dopaminergic neurons were induced from iPS cells derived from healthy subjects and patients with ARHGAP10 mutation. […] The length of neurites was automatically detected and measured with IncuCyte (registered trademark) NeuroTrack (produced by Essen Bioscience).
The length of neurites (mm) per mm^2 was calculated for each field of view, and analysis was performed for 18 fields of view in each group. […]

MK-801-treated mice [3] = assay: MK-801-induced hyperactivity (hypermobility); format: in vivo; details: MK-801 0.3 mg/kg
Protocol: (§1) Mice were placed one by one in measurement cages (25 cm×30 cm×18 cm). Immediately after the placement, spontaneous locomotor activity of mice was measured using a measurement device equipped with infrared light (Brain Science Idea, Osaka, Japan) (Ibi et al., 2010).
After 5 minutes, MK-801 (0.3 mg/kg) was intraperitoneally administered. The amount of locomotor activity started to be measured immediately after the administration (FIG. 6, panel A).

ARHGAP10 mutant mice = assay: Meth-induced visual discrimination learning impairment in ARHGAP10 mutant mice; format: in vivo; details: patient-type ARHGAP10 mutant mice
C57BL/6 mice = assay: Spontaneous locomotor activity; format: in vivo
Protocol: as §1

MK-801-treated mice [4] = assay: Visual discrimination test in MK-801-treated mice
MK-801-treated mice [5] = assay: Social behavior test in MK-801-treated mice; format: in vivo
Protocol: Before conducting the experiment, test mice were kept in breeding cages one by one for 2 days. On the third day, mice that had been normally group-reared in another breeding cage were placed as invading mice into the cages of the test mice, and social behaviors of the test mice, such as tracking and sniffing, were measured for 5 minutes (Ibi et al., 2010).

[6] = fasudil 20 mg/kg i.p., listed as Fasudil, monohydrochloride hemihydrate
[7] = fasudil 20 mg/kg i.p., monohydrochloride hemihydrate

Compound: Methamphetamine hydrochloride
- correct response rate in the visual discrimination learning test ([1]; meth 1.0 mg/kg, C57BL/6 mice, saline-treated about 90%): about 70%

Compound: O=S(=O)(c1cccc2cnccc12)N1CCCNCC1 [fasudil, hexahydro-1-(5-isoquinolinesulfonyl)-1H-1,4-diazepine monohydrochloride hemihydrate]
- length of neurites [2]: improving effects
- Meth-induced (1.0 mg/kg) visual discrimination impairment ([1]; fasudil 3 mg/kg i.p.): Improvement
- Meth-induced (1.0 mg/kg) visual discrimination impairment ([1]; fasudil 10 mg/kg i.p., listed as Fasudil, monohydrochloride hemihydrate): Improved
- Meth-induced (1.0 mg/kg) visual discrimination impairment ([1]; fasudil 10 mg/kg i.p., monohydrochloride hemihydrate): improved
- Meth-induced (1.0 mg/kg) visual discrimination impairment [1, 6]: Improved
- Meth-induced (1.0 mg/kg) visual discrimination impairment [1, 7]: improved
- MK-801-induced hypermobility (MK-801-treated mice [3]; fasudil 10 mg/kg i.p.): ±
- MK-801-induced hypermobility (MK-801-treated mice [3]; [6]): Improved
- MK-801-induced hypermobility (MK-801-treated mice [3]; [7]): significantly inhibited
- Meth-induced (0.3 mg/kg) visual discrimination impairment (ARHGAP10 mutant mice; fasudil 3 mg/kg i.p.): Improved
- Meth-induced (0.3 mg/kg) visual discrimination impairment (ARHGAP10 mutant mice; fasudil 10 mg/kg i.p.): Improved
- Meth-induced (0.3 mg/kg) visual discrimination impairment (ARHGAP10 mutant mice; [7]): significantly improved
- Spontaneous locomotor activity (C57BL/6 mice; fasudil 20 mg/kg i.p., Table 1): ±
- Spontaneous locomotor activity (C57BL/6 mice; fasudil 20 mg/kg i.p., versus saline-treated mice): same level of spontaneous locomotor activity as the saline-treated mice
- Spontaneous locomotor activity (C57BL/6 mice; fasudil 30 mg/kg i.p., versus saline-treated mice, listed as Fasudil, monohydrochloride hemihydrate): Decreased
- Spontaneous locomotor activity (C57BL/6 mice; fasudil 30 mg/kg i.p., versus saline-treated mice, monohydrochloride hemihydrate): significant decrease
- MK-801-induced (1.0 mg/kg) visual discrimination disorder (MK-801-treated mice [4]; fasudil 3 mg/kg i.p.): ±
- MK-801-induced (1.0 mg/kg) visual discrimination disorder (MK-801-treated mice [4]; [6]): Improved
- MK-801-induced (1.0 mg/kg) visual discrimination disorder (MK-801-treated mice [4]; [7]): returned to the control level
- test completion rate, latency to correct response, latency to obtain the reward (MK-801-treated mice [4]; fasudil 3, 10 or 20 mg/kg i.p., MK-801-treated mice): none of the groups showed significant changes
- MK-801-induced social behavior disorder (MK-801-treated mice [5]; fasudil 5 mg/kg i.p., MK-801 0.1 mg/kg): ±
- MK-801-induced social behavior disorder (MK-801-treated mice [5]; fasudil 10 mg/kg i.p., MK-801 0.1 mg/kg, listed as Fasudil, monohydrochloride hemihydrate): Improved
- MK-801-induced social behavior disorder (MK-801-treated mice [5]; fasudil 10 mg/kg i.p., MK-801 0.1 mg/kg, monohydrochloride hemihydrate): returned to the same level as the social behavior in control mice
- MK-801-induced social behavior disorder (MK-801-treated mice [5]; fasudil 20 mg/kg i.p.): ±

Compound: C[C@]12N[C@H](Cc3ccccc31)c1ccccc12 [MK-801, (+)-MK-801 maleate]
- correct response rate in the visual discrimination learning test (MK-801-treated mice [4]; MK-801 0.1 mg/kg i.p., C57BL/6 mice, saline-treated 90%): about 70%
- time of social behavior (MK-801-treated mice [5]; MK-801 0.1 mg/kg i.p., compared with control mice): significantly reduced
